The experiment deals with CD2F1 mice, L1210 leukemia ip, survival T/C. The experiment is described as follows: NCI In Vivo Anticancer Drug Screen. Data for tumor model L1210 Leukemia (intraperitoneal) in CD2F1 (CDF1) mice. Particulars: higher = longer survival. The method in brief: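 Compound-dosed mice with transplantable tumor versus matched vehicle controls; endpoint ratio T/C reported.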
The mark [1] stands for this setting: endpoint: mean survival time, dose: 100.0 mg/kg/injection, schedule: Q04DX003 (ip), vehicle: saline with Tween-80.
[2] abbreviates: endpoint: mean survival time, dose: 200.0 mg/kg/injection, schedule: Q04DX003 (ip), vehicle: saline with Tween-80.
The mark [3] stands for this setting: endpoint: mean survival time, dose: 400.0 mg/kg/injection, schedule: Q04DX003 (ip), vehicle: saline with Tween-80.
The mark [4] stands for this setting: endpoint: mean survival time, dose: 25.0 mg/kg/injection, schedule: Q01DX009 (ip), vehicle: saline with Tween-80.
[5] abbreviates: endpoint: mean survival time, dose: 50.0 mg/kg/injection, schedule: Q01DX009 (ip), vehicle: saline with Tween-80.
[6] abbreviates: endpoint: mean survival time, dose: 100.0 mg/kg/injection, schedule: Q01DX009 (ip), vehicle: saline with Tween-80.
The mark [7] stands for this setting: endpoint: mean survival time, dose: 100.0 mg/kg/injection, schedule: Q04DX002 (ip), vehicle: saline with Tween-80.
Where [8] appears, read: endpoint: mean survival time, dose: 200.0 mg/kg/injection, schedule: Q01DX009 (ip), vehicle: saline with Tween-80.
[9] abbreviates: endpoint: mean survival time, dose: 400.0 mg/kg/injection, schedule: Q01DX009 (ip), vehicle: saline with Tween-80.
[10] abbreviates: endpoint: mean survival time, dose: 100.0 mg/kg/injection, schedule: Q01DX001 (ip), vehicle: saline with Tween-80.
Setting [11] is: endpoint: mean survival time, dose: 200.0 mg/kg/injection, schedule: Q01DX001 (ip), vehicle: saline with Tween-80.

The structures appear in SMILES notation. “And” between values parts separate entries of the source, which are not always exact repeats. Identical values can stand only once. Inconclusive results and toxic doses are left out.

Regarding `C[n+]1c(-c2ccc(NC(=O)c3ccc(C(=O)Nc4ccc(-c5cn6ccccc6[n+]5C)cc4)cc3)cc2)cn2ccccc21`, the T/C was 200 % of control (endpoint: median survival time, dose: 5.4 mg/kg/injection, schedule: Q01DX005 (ip), vehicle: saline with Tween-80); 168 % of control (endpoint: median survival time, dose: 6.25 mg/kg/injection, schedule: Q01DX005 (ip), vehicle: saline with Tween-80); 211 % of control (endpoint: median survival time, dose: 9.0 mg/kg/injection, schedule: Q01DX005 (ip), vehicle: saline with Tween-80); 200 % of control (endpoint: median survival time, dose: 12.5 mg/kg/injection, schedule: Q01DX005 (ip), vehicle: saline with Tween-80); 352 % of control (endpoint: median survival time, dose: 15.0 mg/kg/injection, schedule: Q01DX005 (ip), vehicle: saline with Tween-80); 312 % of control and 341 % of control (endpoint: median survival time, dose: 25.0 mg/kg/injection, schedule: Q01DX005 (ip), vehicle: saline with Tween-80). In addition, the T/C was 152 % of control (endpoint: median survival time, dose: 42.0 mg/kg/injection, schedule: Q01DX005 (ip), vehicle: saline with Tween-80); 86 % of control (endpoint: median survival time, dose: 100.0 mg/kg/injection, schedule: Q01DX005 (ip), vehicle: saline with Tween-80); 109 % of control (endpoint: median survival time, dose: 116.0 mg/kg/injection, schedule: Q01DX005 (ip), vehicle: saline with Tween-80).

In the case of `c1ccc2c(c1)[nH]c1nc3ccncc3nc12`, the T/C runs as follows: (endpoint: mean survival time, dose: 50.0 mg/kg/injection, schedule: Q01DX009 (ip), vehicle: saline) 96 % of control; (endpoint: mean survival time, dose: 100.0 mg/kg/injection, schedule: Q01DX009 (ip), vehicle: saline) 104 % of control; (endpoint: mean survival time, dose: 200.0 mg/kg/injection, schedule: Q01DX009 (ip), vehicle: saline) 95 % of control.

Turning to `CC(C)CC(Br)C(=O)NCC(=O)O` (stereo not given), the T/C reads like this: under setting [1], 95 % of control; under setting [2], 113 % of control; under setting [3], 105 % of control.

Consider `O=C1c2ccccc2C(=O)N1CNc1cccc(NCN2C(=O)c3ccccc3C2=O)c1`, for which the T/C was 98 % of control (endpoint: mean survival time, dose: 100.0 mg/kg/injection, schedule: Q01DX009 (ip), vehicle: acetone); 103 % of control (endpoint: mean survival time, dose: 200.0 mg/kg/injection, schedule: Q01DX009 (ip), vehicle: acetone); 93 % of control (endpoint: mean survival time, dose: 400.0 mg/kg/injection, schedule: Q01DX009 (ip), vehicle: acetone).

As to `N=C(N)c1ccc(OCCCCOc2ccc(N)cc2)cc1`, the T/C is 101 % of control (endpoint: mean survival time, dose: 50.0 mg/kg/injection, schedule: Q01DX009 (ip), vehicle: Klucel (hydroxypropylcellulose) (HPC)); 94 % of control (endpoint: mean survival time, dose: 100.0 mg/kg/injection, schedule: Q01DX009 (ip), vehicle: Klucel (hydroxypropylcellulose) (HPC)); 119 % of control (endpoint: mean survival time, dose: 200.0 mg/kg/injection, schedule: Q01DX009 (ip), vehicle: Klucel (hydroxypropylcellulose) (HPC)).

For the compound `Cc1ccc(S(=O)(=O)F)c(Cl)c1`, the T/C reads like this: (endpoint: mean survival time, dose: 50.0 mg/kg/injection, schedule: Q01DX009 (ip), vehicle: saline sonified) 97 % of control; (endpoint: mean survival time, dose: 100.0 mg/kg/injection, schedule: Q01DX009 (ip), vehicle: saline sonified) 97 % of control; (endpoint: mean survival time, dose: 200.0 mg/kg/injection, schedule: Q01DX009 (ip), vehicle: saline sonified) 95 % of control.

Take `NC(CO)C(O)c1ccc(N=Nc2ccc(O)cc2)cc1` (stereo not given): the T/C is, setting by setting: under setting [4], 100 % of control; under setting [5], 104 % of control; under setting [6], 94 % of control.

As to `CC(C)(C)OC(=O)NC(CCC(=O)OCc1ccccc1)C(=O)O` (stereo not given) (tested in a mixture with another compound), the T/C runs as follows: under setting [4], 91 % of control; under setting [6], 96 % of control and 98 % of control.

`O=C1CCc2ccsc21`: the T/C is, setting by setting: (endpoint: mean survival time, dose: 25.0 mg/kg/injection, schedule: Q04DX002 (ip), vehicle: saline with Tween-80) 98 % of control; (endpoint: mean survival time, dose: 50.0 mg/kg/injection, schedule: Q04DX002 (ip), vehicle: saline with Tween-80) 91 % of control; under setting [7], 106 % of control.

On to `Cc1ccc(C(=O)C2CC(Br)C(Br)CC2C(=O)c2ccc(C)cc2)cc1` (stereo not given), for which the T/C under setting [6] is 90 % of control; the T/C under setting [1] was 100 % of control; the T/C under setting [8] was 86 % of control; the T/C under setting [2] was 100 % of control; the T/C under setting [9] is 86 % of control; the T/C under setting [3] is 97 % of control.

Regarding `COc1cc(C=O)ccc1OC(=O)Nc1cc([N+](=O)[O-])ccc1Cl`, the T/C runs as follows: under setting [5], 98 % of control and 102 % of control; under setting [10], 93 % of control; under setting [7], 92 % of control and 102 % of control; under setting [1], 93 % of control; under setting [11], 108 % of control; (endpoint: mean survival time, dose: 200.0 mg/kg/injection, schedule: Q04DX002 (ip), vehicle: saline with Tween-80) 91 % of control and 92 % of control. The T/C reads like this: under setting [2], 107 % of control; (endpoint: mean survival time, dose: 400.0 mg/kg/injection, schedule: Q01DX001 (ip), vehicle: saline with Tween-80) 96 % of control; (endpoint: mean survival time, dose: 400.0 mg/kg/injection, schedule: Q04DX002 (ip), vehicle: saline with Tween-80) 88 % of control and 96 % of control; under setting [3], 100 % of control.

`CCOC(=O)C[S+](C)C`: the T/C is 90 % of control (endpoint: mean survival time, dose: 75.0 mg/kg/injection, schedule: Q01DX001 (ip), vehicle: saline) and 93 % of control (endpoint: mean survival time, dose: 150.0 mg/kg/injection, schedule: Q01DX001 (ip), vehicle: saline).

For the compound `CCOC(=O)CCCSc1nn(C2OC(COC(=O)c3ccccc3)C(OC(=O)c3ccccc3)C2OC(=O)c2ccccc2)c(=O)[nH]c1=O` (stereo not given), the T/C was 93 % of control (endpoint: mean survival time, dose: 12.5 mg/kg/injection, schedule: Q01DX005 (ip), vehicle: distilled water + Tween-80); 90 % of control (endpoint: mean survival time, dose: 25.0 mg/kg/injection, schedule: Q01DX005 (ip), vehicle: distilled water + Tween-80); 93 % of control (endpoint: mean survival time, dose: 50.0 mg/kg/injection, schedule: Q01DX005 (ip), vehicle: distilled water + Tween-80); 88 % of control (endpoint: mean survival time, dose: 100.0 mg/kg/injection, schedule: Q01DX005 (ip), vehicle: distilled water + Tween-80); 92 % of control (endpoint: mean survival time, dose: 200.0 mg/kg/injection, schedule: Q01DX005 (ip), vehicle: distilled water + Tween-80).

Turning to `Cc1ccc(S(=O)(=O)Nc2ccc([N+](=O)[O-])cc2OS(=O)(=O)c2ccc(C)cc2)cc1`, the T/C was 100 % of control (endpoint: mean survival time, dose: 100.0 mg/kg/injection, schedule: Q04DX003 (ip), vehicle: alcohol); 95 % of control (endpoint: mean survival time, dose: 200.0 mg/kg/injection, schedule: Q04DX003 (ip), vehicle: alcohol); 92 % of control (endpoint: mean survival time, dose: 400.0 mg/kg/injection, schedule: Q04DX003 (ip), vehicle: alcohol).

Consider `Cc1cn(C2CC(O)C(CO)O2)c(=O)nc1N1CCCCCCC1` (stereo not given), for which the T/C runs as follows: (endpoint: median survival time, dose: 12.5 mg/kg/injection, schedule: Q01DX005 (ip), vehicle: water) 102 % of control; (endpoint: median survival time, dose: 25.0 mg/kg/injection, schedule: Q01DX005 (ip), vehicle: water) 102 % of control; (endpoint: median survival time, dose: 50.0 mg/kg/injection, schedule: Q01DX005 (ip), vehicle: water) 102 % of control; (endpoint: median survival time, dose: 100.0 mg/kg/injection, schedule: Q01DX005 (ip), vehicle: water) 102 % of control; (endpoint: median survival time, dose: 200.0 mg/kg/injection, schedule: Q01DX005 (ip), vehicle: water) 103 % of control.

For `COc1ccc(N(C)C/C(CN)=N/O)cc1`, the T/C (endpoint: mean survival time, dose: 100.0 mg/kg/injection, schedule: Q01DX001 (ip), vehicle: Klucel (hydroxypropylcellulose) (HPC)) is 97 % of control and the T/C (endpoint: mean survival time, dose: 200.0 mg/kg/injection, schedule: Q01DX001 (ip), vehicle: Klucel (hydroxypropylcellulose) (HPC)) is 102 % of control.

As to `CC(=O)c1cc(-c2ccc(C)cc2)nc2c(C)cc(C)cc12`, the T/C reads like this: under setting [1], 92 % of control; under setting [2], 86 % of control; under setting [3], 92 % of control.

Consider `O=C(O)c1cccnc1[N+](=O)[O-]`, for which the T/C runs as follows: under setting [5], 98 % of control; under setting [10], 93 % of control; under setting [6], 94 % of control; under setting [11], 93 % of control; under setting [8], 96 % of control.

Turning to `CC1=C(C)CN(c2ccccc2)SC1`, the T/C is 98 % of control under setting [1], 98 % of control under setting [2] and 98 % of control under setting [3].

Consider `CCOC(=O)c1sc(N)c(C(=O)OCC)c1C`, for which the T/C runs as follows: under setting [6], 98 % of control; under setting [1], 95 % of control; under setting [8], 93 % of control; under setting [2], 95 % of control; under setting [9], 91 % of control; under setting [3], 101 % of control.

Turning to `COc1ccc(CCNC(=O)Cc2ccc(OC)c(OC)c2)cc1OC`, the T/C is 93 % of control (endpoint: mean survival time, dose: 50.0 mg/kg/injection, schedule: Q04DX003 (ip), vehicle: saline); 96 % of control (endpoint: mean survival time, dose: 100.0 mg/kg/injection, schedule: Q04DX003 (ip), vehicle: saline); 96 % of control (endpoint: mean survival time, dose: 200.0 mg/kg/injection, schedule: Q04DX003 (ip), vehicle: saline).

The record behind these values is PubChem BioAssay AID256 (DTP/NCI, 2004).
